Measured values taken from US8969335B2, “Benzonitrile derivatives as kinase inhibitors” (MERCK PATENT GmbH, priority 2011, dated 2015).
Read-outs that look alike come from different tables or passages of the source.

Assays:
[1] = tested on: TBK1 + IKKε (phospho-IRF3 @ Ser 386, MDA-MB-468 cells); assay: TBK1 + IKKε cell assay: dose response inhibition of phospho-IRF3 @ Ser 386 in MDA-MB-468 cells; format: cell-based; conditions: Homo sapiens
Procedure: Day 1: MDA-MB-468 cells are detached using HyQ-Tase, counted and sown into a 384-well plate with TC surface and clear bottom in a density of 10,000 cells per well in a total volume of 35 μl of complete medium. Alternatively, the cells are sown directly from frozen glass vials.
Day 2: The cells are pre-treated with inhibitor compounds for 1 h prior to poly(I:C) stimulation. After incubation for 2 h with poly(I:C), the cells are fixed in (para)formaldehyde (PFA) and permeabilised using methanol (MeOH). The cells are then blocked and incubated with an anti-pIRF3 antibody at 4° C. overnight.
Day 3: The primary antibody is washed off, an AlexaFluor488-conjugated secondary antibody is added, the cells are contrast-stained with propidium iodide, followed by image acquisition on an IMX ultra-high content reader.

[2] = molecular target: TANK binding kinase (TBK1) (Homo sapiens (Human), UniProt Q9UHD2); assay: TBK1 enzyme assay (384-well flashplate kinase assay); format: biochemical; conditions: 0.6 nM TBK1, 10 μM ATP, 30° C., 120 min
Procedure: Test for the Inhibition of TBK1
0.6 nM TANK binding kinase (TBK1), 800 nM biotinylated MELK-derived peptide (Biotin-Ah-Ah-[sequence]) and 10 μM ATP (spiked with 0.25 μCi of ^33P-ATP/well) are incubated at 30° C. for 120 min in a total volume of 50 μl (10 mM MOPS, 10 mM Mg acetate, 0.1 mM EGTA, 1 mM DTT, 0.02% of Brij35, 0.1% of BSA, pH 7.5) with or without test compound. The reaction is stopped with 25 μl of 200 mM EDTA. After 30 min at room temperature, the liquid is removed, and each well is washed three times with 100 μl of 0.9% sodium chloride solution. Non-specific reaction is measured in the presence of 100 nM staurosporine. The radioactivity is measured in a Topcount (PerkinElmer).

[3] = molecular target: IKKε (Homo sapiens (Human), UniProt Q14164); assay: IKKε kinase assay (384-well flashplate assay); format: biochemical; conditions: 1 nM IKKε, 10 μM ATP, 30° C., 2 hours; read-out: IKKε enzyme assay IC50
Procedure: Test for the Inhibition of IKKε
IKKε—Kinase Assay (IKKepsilon)
The kinase assay is performed as 384-well flashplate assay (for example for Topcount measurement).
1 nM IKKε, 800 nM biotinylated IκBα(19-42) peptide (Biotin-C6-C6-[…]) and 10 μM ATP (spiked with 0.3 μCi of ^33P-ATP/well) are incubated at 30° C. for 2 hours in a total volume of 50 μl (10 mM MOPS, 10 mM Mg acetate, 0.1 mM EGTA, 1 mM dithiothreitol, 0.02% of Brij35, 0.1% of BSA, 0.1% of BioStab, pH 7.5) with or without test compound. The reaction is stopped using 25 μl of 200 mM EDTA. After 30 min at room temperature, the liquid is removed, and each well is washed three times with 100 μl of 0.9% sodium chloride solution. Non-specific reaction is determined in the presence of 3 μM MSC2119074 (BX-795). The radioactivity is measured using a Topcount (PerkinElmer). The results (for example IC50 values) are calculated using program tools provided by the IT Department (for example AssayExplorer, Symyx).

[4] = poly(I:C) stimulation, nuclear phospho-IRF3, read-out: TBK1 + IKKε cell assay IC50

IKKε, sequence (Q14164 whole entry): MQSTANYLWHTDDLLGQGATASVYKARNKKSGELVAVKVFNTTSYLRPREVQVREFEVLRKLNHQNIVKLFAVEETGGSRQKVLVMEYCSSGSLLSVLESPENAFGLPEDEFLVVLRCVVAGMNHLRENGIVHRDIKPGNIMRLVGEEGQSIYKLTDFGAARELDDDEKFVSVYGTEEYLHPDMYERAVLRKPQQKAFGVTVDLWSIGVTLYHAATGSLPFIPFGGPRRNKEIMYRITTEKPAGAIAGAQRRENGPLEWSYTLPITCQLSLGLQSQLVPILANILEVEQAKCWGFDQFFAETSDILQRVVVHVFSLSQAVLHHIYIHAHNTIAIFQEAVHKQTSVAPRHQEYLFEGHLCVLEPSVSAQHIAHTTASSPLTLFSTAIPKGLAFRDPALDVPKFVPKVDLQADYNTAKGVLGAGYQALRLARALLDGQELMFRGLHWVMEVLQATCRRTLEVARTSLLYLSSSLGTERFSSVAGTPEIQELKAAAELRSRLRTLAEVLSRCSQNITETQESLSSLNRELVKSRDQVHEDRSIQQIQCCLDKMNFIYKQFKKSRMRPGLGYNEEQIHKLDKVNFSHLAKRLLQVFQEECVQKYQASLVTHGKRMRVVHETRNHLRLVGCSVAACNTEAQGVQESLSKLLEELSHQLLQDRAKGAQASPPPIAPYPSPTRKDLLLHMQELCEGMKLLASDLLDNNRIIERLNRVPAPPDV
TANK binding kinase (TBK1), sequence (Q9UHD2 whole entry): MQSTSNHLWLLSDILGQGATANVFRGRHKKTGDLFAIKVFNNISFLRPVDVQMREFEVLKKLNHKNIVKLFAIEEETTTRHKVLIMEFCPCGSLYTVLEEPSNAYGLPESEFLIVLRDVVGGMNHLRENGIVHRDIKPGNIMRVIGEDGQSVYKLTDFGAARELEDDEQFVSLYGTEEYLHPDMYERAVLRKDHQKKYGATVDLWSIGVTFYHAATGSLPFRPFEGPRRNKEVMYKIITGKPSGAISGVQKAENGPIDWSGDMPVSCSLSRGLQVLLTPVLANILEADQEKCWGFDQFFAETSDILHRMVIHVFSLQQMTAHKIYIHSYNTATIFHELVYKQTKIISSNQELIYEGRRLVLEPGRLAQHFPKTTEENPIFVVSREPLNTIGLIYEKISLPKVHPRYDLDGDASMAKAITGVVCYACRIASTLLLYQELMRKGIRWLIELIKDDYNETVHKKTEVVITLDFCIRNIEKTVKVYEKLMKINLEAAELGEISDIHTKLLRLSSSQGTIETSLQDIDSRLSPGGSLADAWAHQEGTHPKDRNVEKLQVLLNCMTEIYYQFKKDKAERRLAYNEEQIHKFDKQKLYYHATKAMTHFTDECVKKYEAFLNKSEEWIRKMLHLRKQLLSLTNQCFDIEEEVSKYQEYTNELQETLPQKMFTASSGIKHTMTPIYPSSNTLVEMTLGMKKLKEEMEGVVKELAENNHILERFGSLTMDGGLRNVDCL

Work on `O=C(NCCCNc1nc(Nc2cccc(NC(=O)N3CCCC3)c2)ncc1I)c1cccs1` [BX-795, reference compound] yielded an IC50 ([1]; reference inhibitor range, read-out: IC50 of reference inhibitor in phospho-IRF3 cell assay) of 0.2 to 0.8 µM.
Compound `CN1CCC(n2cc(Nc3cc(-c4ccc(OC5CCOCC5)c(C#N)c4)ccn3)cn2)CC1` [Compound A2, 5-{2-[1-(1-Methylpiperidin-4-yl)-1H-pyrazol-4-yl-amino]pyridin-4-yl}-2-(tetrahydropyran-4-yloxy)benzonitrile] has an IC50 [1, 4] of 0.96 µM, an IC50 [2] of 0.083 µM and an IC50 [3] of 0.02 µM.
`N#Cc1cc(-c2ccnc(Nc3ccc(-c4cccnc4)cn3)c2)ccc1OC1CCOCC1` [Compound A3, 5-[2-([3,3′]Bipyridinyl-6-ylamino)pyridin-4-yl]-2-(tetrahydropyran-4-yloxy)benzonitrile] gave an IC50 [1, 4] of 3.3 µM, an IC50 [2] of 0.26 µM and an IC50 [3] of 0.37 µM.
`Cc1cc(Nc2cc(-c3ccc(OC4CCOCC4)c(C#N)c3)ccn2)no1` [Compound A4, 5-[2-(5-Methylisoxazol-3-ylamino)pyridin-4-yl]-2-(tetrahydropyran-4-yloxy)benzonitrile] was tested, and the IC50 [1, 4] was 6.6 µM, the IC50 [2] was 0.034 µM and the IC50 [3] was 0.038 µM.
Work on `Cn1ccc(Nc2cc(-c3ccc(OC4CCOCC4)c(C#N)c3)ccn2)n1` [Compound A5, 5-[2-(1-Methyl-1H-pyrazol-3-ylamino)pyridin-4-yl]-2-(tetrahydropyran-4-yloxy)benzonitrile] yielded an IC50 [1, 4] of 2.9 µM, an IC50 [2] of 0.097 µM and an IC50 [3] of 0.11 µM.
Work on `N#Cc1cc(-c2ccnc(Nc3ccc(N4CCOCC4)cn3)c2)ccc1OC1CCOCC1` [Compound A7, 5-[2-(5-Morpholin-4-ylpyridin-2-ylamino)pyridin-4-yl]-2-(tetrahydropyran-4-yloxy)benzonitrile] yielded an IC50 [1, 4] of 0.35 µM, an IC50 [2] of 0.008 µM and an IC50 [3] of 0.015 µM.
`N#Cc1cc(-c2ccnc(Nc3ccc(-c4cn[nH]c4)cn3)c2)ccc1OC1CCOCC1` [Compound A9, 5-{2-[5-(1H-Pyrazol-4-yl)pyridin-2-ylamino]pyridin-4-yl}-2-(tetrahydropyran-4-yloxy)benzonitrile] gave an IC50 [1, 4] of 3 µM, an IC50 [2] of 0.12 µM and an IC50 [3] of 0.1 µM.
`CC(C)(C)c1cc(Nc2cc(-c3ccc(OC4CCOCC4)c(C#N)c3)ccn2)n[nH]1` [Compound A10, 5-[2-(5-tert-Butyl-1H-pyrazol-3-ylamino)pyridin-4-yl]-2-(tetrahydropyran-4-yloxy)benzonitrile] gave an IC50 [1, 4] of 1.2 µM, an IC50 [2] of 0.021 µM and an IC50 [3] of 0.043 µM.
`N#Cc1ccc(Nc2cc(-c3ccc(OC4CCOCC4)c(C#N)c3)ccn2)nc1` [Compound A11, 6-{4-[3-Cyano-4-(tetrahydropyran-4-yloxy)phenyl]pyridin-2-ylamino}nicotinonitrile] gave an IC50 [1, 4] of 5.2 µM, an IC50 [2] of 0.25 µM and an IC50 [3] of 0.24 µM.
`N#Cc1cc(-c2ccnc(Nc3cc(C4CC4)n[nH]3)c2)ccc1OC1CCOCC1` [Compound A12, 5-[2-(5-Cyclopropyl-2H-pyrazol-3-ylamino)pyridin-4-yl]-2-(tetrahydropyran-4-yloxy)benzonitrile] gave an IC50 [1, 4] of 1.3 µM, an IC50 [2] of 0.03 µM and an IC50 [3] of 0.025 µM.
For `N#Cc1cc(-c2ccnc(Nc3cnn(CC(F)F)c3)c2)ccc1OC1CCOCC1` [Compound A20, 5-{2-[1-(2,2-Difluoroethyl)-1H-pyrazol-4-ylamino]pyridin-4-yl}-2-(tetrahydropyran-4-yloxy)benzonitrile], the IC50 [1, 4] was 4.8 µM, the IC50 [2] was 0.055 µM and the IC50 [3] was 0.051 µM.
For `N#Cc1cc(-c2ccnc(Nc3cnn(CCC4CCNCC4)c3)c2)ccc1OC1CCOCC1` [Compound A21, 5-{2-[1-(2-Piperidin-4-ylethyl)-1H-pyrazol-4-ylamino]pyridin-4-yl}-2-(tetrahydropyran-4-yloxy)benzonitrile], the IC50 [1, 4] was 5.3 µM, the IC50 [2] was 0.07 µM and the IC50 [3] was 0.037 µM.
With `N#Cc1cc(-c2ccnc(Nc3cnn(CCN4CCOCC4)c3)c2)ccc1OC1CCOCC1` [Compound A22, 5-{2-[1-(2-Morpholin-4-ylethyl)-1H-pyrazol-4-ylamino]pyridin-4-yl}-2-(tetrahydropyran-4-yloxy)benzonitrile] the IC50 [1, 4] was 9.6 µM, the IC50 [2] was 0.1 µM and the IC50 [3] was 0.15 µM.
With `COCCCn1cc(Nc2cc(-c3ccc(OC4CCOCC4)c(C#N)c3)ccn2)cn1` [Compound A23, 5-{2-[1-(3-Methoxypropyl)-1H-pyrazol-4-ylamino]pyridin-4-yl}-2-(tetrahydropyran-4-yloxy)benzonitrile] the IC50 [1, 4] was 7.8 µM, the IC50 [2] was 0.12 µM and the IC50 [3] was 0.16 µM.
Work on `N#Cc1cc(-c2ccnc(Nc3cnn(CC4CC4C#N)c3)c2)ccc1OC1CCOCC1` (centres unmarked) [Compound A24, 5-{2-[1-(2-Cyanocyclopropylmethyl)-1H-pyrazol-4-ylamino]pyridin-4-yl}-2-(tetrahydropyran-4-yloxy)benzonitrile] yielded an IC50 [1, 4] of 4.8 µM, an IC50 [2] of 0.11 µM and an IC50 [3] of 0.089 µM.
Compound `N#Cc1cc(-c2ccnc(Nc3cnn(C4CCNC4)c3)c2)ccc1OC1CCOCC1` (centres unmarked) [Compound A28, 5-[2-(1-Pyrrolidin-3-yl-1H-pyrazol-4-ylamino)pyridin-4-yl]-2-(tetrahydropyran-4-yloxy)benzonitrile] has an IC50 [1, 4] of 23 µM, an IC50 [2] of 0.28 µM and an IC50 [3] of 0.074 µM.
With `N#Cc1cc(-c2ccnc(Nc3cnn(CCC4CCN(C(=O)CO)CC4)c3)c2)ccc1OC1CCOCC1` [Compound A29, 5-[2-(1-{2-[1-(2-Hydroxyacetyl)piperidin-4-yl]ethyl}-1H-pyrazol-4-ylamino)pyridin-4-yl]-2-(tetrahydropyran-4-yloxy)benzonitrile] the IC50 [1, 4] was 6.7 µM, the IC50 [2] was 0.12 µM and the IC50 [3] was 0.088 µM.
In the case of `Cn1ccc(Nc2nccc(-c3ccc(OC4CCOCC4)c(C#N)c3)n2)n1` [Compound A33, 5-[2-(1-Methyl-1H-pyrazol-3-ylamino)pyrimidin-4-yl]-2-(tetrahydropyran-4-yloxy)benzonitrile], the IC50 [1, 4] is reported as 5 µM, the IC50 [2] is reported as 0.13 µM and the IC50 [3] is reported as 0.058 µM.
With `COCCn1cc(Nc2nccc(-c3ccc(OC4CCOCC4)c(C#N)c3)n2)cn1` [Compound A35, 5-{2-[1-(2-Methoxyethyl)-1H-pyrazol-4-ylamino]pyrimidin-4-yl}-2-(tetrahydropyran-4-yloxy)benzonitrile] the IC50 [1, 4] was 0.67 µM, the IC50 [2] was 0.006 µM and the IC50 [3] was 0.018 µM.
For `N#Cc1cc(-c2ccnc(Nc3cnn(C4CCNCC4)c3)n2)ccc1OC1CCOCC1` [Compound A64, 5-[2-(1-piperidin-4-yl-1H-pyrazol-4-ylamino)pyrimidin-4-yl]-2-(tetrahydropyran-4-yloxy)-benzonitrile], the IC50 [1, 4] was 0.23 µM, the IC50 [2] was 0.006 µM and the IC50 [3] was 0.006 µM.
Work on `N#Cc1cc(-c2ccnc(Nc3ncc(C4CCNCC4)cn3)c2)ccc1OC1CCOCC1` [Compound A66, 5-[2-(5-piperidin-4-ylpyrimidin-2-ylamino)pyridin-4-yl]-2-(tetrahydropyran-4-yloxy)benzonitrile] yielded an IC50 [1, 4] of 4.9 µM, an IC50 [2] of 0.1 µM and an IC50 [3] of 0.082 µM.
For `COCCn1cc(Nc2cc(-c3ccc(OCC4CC4)c(C#N)c3)ccn2)cn1` [Compound A105, 2-cyclopropylmethoxy-5-{2-[1-(2-methoxyethyl)-1H-pyrazol-4-ylamino]-pyridin-4-yl}benzonitrile], the IC50 [2] was 0.22 µM and the IC50 [3] was 0.065 µM.
`N#Cc1cc(-c2ccnc(Nc3cn[nH]c3)c2)ccc1OCC1CCC1` [Compound A109, 2-cyclobutylmethoxy-5-[2-(1H-pyrazol-4-ylamino)pyridin-4-yl]benzonitrile] gave an IC50 [2] of 0.38 µM and an IC50 [3] of 0.14 µM.
Work on `COCCn1cc(Nc2cc(-c3ccc(OCC4CCC4)c(C#N)c3)ccn2)cn1` [Compound A110, 2-cyclobutylmethoxy-5-{2-[1-(2-methoxyethyl)-1H-pyrazol-4-ylamino]-pyridin-4-yl}benzonitrile] yielded an IC50 [2] of 0.49 µM and an IC50 [3] of 0.082 µM.
`N#Cc1cc(-c2ccnc(Nc3ccc(CO)cn3)c2)ccc1OCC1CCC1` [Compound A111, 2-cyclobutylmethoxy-5-[2-(5-hydroxymethylpyridin-2-ylamino)pyridin-4-yl]benzonitrile] was tested, and the IC50 [2] was 0.089 µM and the IC50 [3] was 0.2 µM.
With `COCCn1cc(Nc2cc(-c3ccc(OCC4CCN(C(C)=O)CC4)c(C#N)c3)ccn2)cn1` [Compound A114, 2-(1-acetylpiperidin-4-ylmethoxy)-5-{2-[1-(2-methoxyethyl)-1H-pyrazol-4-ylamino]pyridin-4-yl}benzonitrile] the IC50 [2] was 5.5 µM and the IC50 [3] was 0.65 µM.
Compound `CC(=O)N1CCC(COc2ccc(-c3ccnc(Nc4ccc(CO)cn4)c3)cc2C#N)CC1` [Compound A115, 2-(1-acetylpiperidin-4-ylmethoxy)-5-[2-(5-hydroxymethylpyridin-2-ylamino)pyridin-4-yl]benzonitrile] has an IC50 [2] of 1.5 µM and an IC50 [3] of 1.1 µM.
`CC(=O)N1CCC(COc2ccc(-c3ccnc(Nc4cnn(C5CCNCC5)c4)c3)cc2C#N)CC1` [Compound A116, 2-(1-acetylpiperidin-4-ylmethoxy)-5-[2-(1-piperidin-4-yl-1H-pyrazol-4-ylamino)pyridin-4-yl]benzonitrile] showed an IC50 [2] of 6.6 µM and an IC50 [3] of 0.19 µM.
With `CC(=O)N1CCC(COc2ccc(-c3ccnc(Nc4ccc(N5CCOCC5)cn4)c3)cc2C#N)CC1` [Compound A117, 2-(1-acetylpiperidin-4-ylmethoxy)-5-[2-(5-morpholin-4-ylpyridin-2-ylamino)pyridin-4-yl]benzonitrile] the IC50 [2] was 0.81 µM and the IC50 [3] was 0.61 µM.
